Source: ChEMBL document CHEMBL4507295 (2021)

Key:
[1] = tested on: Tyrosine-protein kinase ABL1 (Homo sapiens), P00519 [F317L]; details: Compound concentration 1000.0 nM
[2] = target: Dual specificity mitogen-activated protein kinase kinase 1 (Homo sapiens) (UniProt Q02750); details: Compound concentration 1000.0 nM
[3] = target: Hormonally up-regulated neu tumor-associated kinase (Homo sapiens) (UniProt P57058); details: Compound concentration 1000.0 nM
[4] = target: Serine/threonine-protein kinase 17A (Homo sapiens) (UniProt Q9UEE5); details: Compound concentration 1000.0 nM
[5] = target: Phosphatidylinositol 4,5-bisphosphate 3-kinase catalytic subunit delta isoform (Homo sapiens) (UniProt O00329); details: Compound concentration 1000.0 nM
[6] = target: Serine/threonine-protein kinase pim-1 (Homo sapiens) (UniProt P11309); details: Compound concentration 1000.0 nM
[7] = target: Phosphatidylinositol 5-phosphate 4-kinase type-2 gamma (Homo sapiens) (UniProt Q8TBX8); details: Compound concentration 1000.0 nM
Chain of Phosphatidylinositol 5-phosphate 4-kinase type-2 gamma (Homo sapiens) (Q8TBX8 whole entry): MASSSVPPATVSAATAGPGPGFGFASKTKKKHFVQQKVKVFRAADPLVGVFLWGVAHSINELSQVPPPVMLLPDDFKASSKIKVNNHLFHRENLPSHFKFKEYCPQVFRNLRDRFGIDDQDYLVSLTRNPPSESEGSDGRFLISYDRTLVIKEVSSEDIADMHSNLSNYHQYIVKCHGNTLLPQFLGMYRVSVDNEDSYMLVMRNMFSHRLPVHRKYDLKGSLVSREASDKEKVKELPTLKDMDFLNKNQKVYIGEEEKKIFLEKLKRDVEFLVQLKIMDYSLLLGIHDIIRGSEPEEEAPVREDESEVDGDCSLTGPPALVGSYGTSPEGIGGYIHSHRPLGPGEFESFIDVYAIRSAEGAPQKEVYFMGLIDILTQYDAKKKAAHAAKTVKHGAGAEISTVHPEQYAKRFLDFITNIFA

[8] = target: NT-3 growth factor receptor (Homo sapiens) (UniProt Q16288); details: Compound concentration 1000.0 nM
[9] = target: Misshapen-like kinase 1 (Homo sapiens) (UniProt Q8N4C8); details: Compound concentration 1000.0 nM
Chain of Misshapen-like kinase 1 (Homo sapiens) (Q8N4C8 whole entry, looked up): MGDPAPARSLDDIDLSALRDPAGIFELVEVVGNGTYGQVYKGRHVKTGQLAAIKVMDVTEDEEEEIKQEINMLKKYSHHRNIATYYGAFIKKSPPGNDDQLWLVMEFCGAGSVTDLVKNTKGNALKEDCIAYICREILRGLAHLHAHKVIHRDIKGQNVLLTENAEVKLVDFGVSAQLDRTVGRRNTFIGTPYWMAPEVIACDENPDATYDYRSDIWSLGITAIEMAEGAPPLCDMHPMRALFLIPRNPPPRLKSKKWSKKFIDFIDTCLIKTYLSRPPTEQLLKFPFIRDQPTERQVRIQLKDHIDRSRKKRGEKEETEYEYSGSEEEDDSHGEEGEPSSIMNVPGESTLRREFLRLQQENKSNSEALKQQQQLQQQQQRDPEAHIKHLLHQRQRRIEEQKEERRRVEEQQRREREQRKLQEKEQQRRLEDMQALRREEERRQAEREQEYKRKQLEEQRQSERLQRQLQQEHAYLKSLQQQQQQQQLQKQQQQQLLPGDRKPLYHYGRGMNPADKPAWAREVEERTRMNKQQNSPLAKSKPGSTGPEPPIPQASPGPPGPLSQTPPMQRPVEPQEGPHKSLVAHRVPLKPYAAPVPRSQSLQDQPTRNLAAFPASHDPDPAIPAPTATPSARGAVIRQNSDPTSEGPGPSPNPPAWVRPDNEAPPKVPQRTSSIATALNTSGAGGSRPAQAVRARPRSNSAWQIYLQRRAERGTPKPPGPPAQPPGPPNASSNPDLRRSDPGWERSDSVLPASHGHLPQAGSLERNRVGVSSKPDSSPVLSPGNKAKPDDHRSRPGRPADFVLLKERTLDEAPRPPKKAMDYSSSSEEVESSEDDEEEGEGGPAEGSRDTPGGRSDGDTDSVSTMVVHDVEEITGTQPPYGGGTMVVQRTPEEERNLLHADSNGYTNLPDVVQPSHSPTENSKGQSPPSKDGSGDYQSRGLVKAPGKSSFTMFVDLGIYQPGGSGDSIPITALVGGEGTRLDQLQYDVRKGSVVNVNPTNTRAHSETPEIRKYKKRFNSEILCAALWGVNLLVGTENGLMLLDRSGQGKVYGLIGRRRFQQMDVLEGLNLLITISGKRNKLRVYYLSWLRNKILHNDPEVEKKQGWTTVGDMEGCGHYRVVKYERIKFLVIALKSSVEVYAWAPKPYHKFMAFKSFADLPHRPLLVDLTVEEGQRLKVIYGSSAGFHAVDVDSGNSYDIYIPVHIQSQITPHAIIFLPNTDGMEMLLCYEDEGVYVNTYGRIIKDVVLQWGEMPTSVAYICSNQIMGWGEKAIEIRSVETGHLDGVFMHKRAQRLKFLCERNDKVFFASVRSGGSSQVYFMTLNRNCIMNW

[10] = target: Ephrin type-A receptor 5 (Homo sapiens) (UniProt P54756); details: Compound concentration 1000.0 nM
[11] = tested on: Epidermal growth factor receptor (Homo sapiens), P00533 [G719C]; details: Compound concentration 1000.0 nM
[12] = target: Phosphatidylinositol 4-phosphate 5-kinase type-1 alpha (Homo sapiens) (UniProt Q99755); details: Compound concentration 1000.0 nM
[13] = target: Epidermal growth factor receptor (Homo sapiens) (UniProt P00533); details: Compound concentration 1000.0 nM
[14] = target: Serine/threonine-protein kinase 32B (Homo sapiens) (UniProt Q9NY57); details: Compound concentration 1000.0 nM
[15] = tested on: Phosphatidylinositol 4,5-bisphosphate 3-kinase catalytic subunit alpha isoform (Homo sapiens), P42336 [Q546K]; details: Compound concentration 1000.0 nM
[16] = target: Angiopoietin-1 receptor (Homo sapiens) (UniProt Q02763); details: Compound concentration 1000.0 nM
[17] = target: 5-hydroxytryptamine receptor 1D (Homo sapiens) (UniProt P28221); details: Compound concentration 10.0 uM
[18] = target: Serine/threonine-protein kinase TAO2 (Homo sapiens) (UniProt Q9UL54); details: Compound concentration 1000.0 nM
[19] = target: Mitogen-activated protein kinase 11 (Homo sapiens) (UniProt Q15759); details: Compound concentration 1000.0 nM
Chain of Mitogen-activated protein kinase 11 (Homo sapiens) (Q15759 whole entry): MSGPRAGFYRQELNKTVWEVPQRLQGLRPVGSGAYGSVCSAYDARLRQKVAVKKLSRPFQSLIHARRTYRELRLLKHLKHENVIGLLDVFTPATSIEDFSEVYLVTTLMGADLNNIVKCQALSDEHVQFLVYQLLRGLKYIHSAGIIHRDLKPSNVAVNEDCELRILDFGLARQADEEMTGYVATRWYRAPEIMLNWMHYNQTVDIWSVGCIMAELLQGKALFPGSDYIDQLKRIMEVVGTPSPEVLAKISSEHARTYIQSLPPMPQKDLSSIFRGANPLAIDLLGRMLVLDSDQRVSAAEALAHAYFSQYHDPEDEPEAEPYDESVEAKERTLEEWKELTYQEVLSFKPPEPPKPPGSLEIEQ

[20] = tested on: Epidermal growth factor receptor (Homo sapiens), P00533 [L858R,T790M]; details: Compound concentration 1000.0 nM
[21] = target: Calcium/calmodulin-dependent protein kinase type IV (Homo sapiens) (UniProt Q16566); details: Compound concentration 1000.0 nM
[22] = target: Cyclin-dependent kinase-like 3 (Homo sapiens) (UniProt Q8IVW4); details: Compound concentration 1000.0 nM
[23] = target: Serine/threonine-protein kinase Chk2 (Homo sapiens) (UniProt O96017); details: Compound concentration 1000.0 nM
[24] = tested on: Epidermal growth factor receptor (Homo sapiens), P00533 [UNDEFINED MUTATION]; details: Compound concentration 1000.0 nM
[25] = target: Atypical kinase COQ8B, mitochondrial (Homo sapiens) (UniProt Q96D53); details: Compound concentration 1000.0 nM
[26] = target: Mu-type opioid receptor (Homo sapiens) (UniProt P35372); details: Compound concentration 10.0 uM
Chain of Mu-type opioid receptor (Homo sapiens) (P35372 whole entry): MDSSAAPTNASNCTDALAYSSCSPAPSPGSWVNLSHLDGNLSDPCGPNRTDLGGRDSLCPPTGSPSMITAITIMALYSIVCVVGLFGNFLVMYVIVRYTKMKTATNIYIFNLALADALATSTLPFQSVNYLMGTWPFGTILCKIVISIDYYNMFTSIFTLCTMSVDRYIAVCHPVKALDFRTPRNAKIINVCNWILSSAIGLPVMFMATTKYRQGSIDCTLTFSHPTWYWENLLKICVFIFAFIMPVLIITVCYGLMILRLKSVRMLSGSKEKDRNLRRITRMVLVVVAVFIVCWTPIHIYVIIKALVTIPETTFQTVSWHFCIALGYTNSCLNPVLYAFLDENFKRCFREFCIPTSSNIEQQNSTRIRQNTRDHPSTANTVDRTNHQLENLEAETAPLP

[27] = target: Receptor-interacting serine/threonine-protein kinase 4 (Homo sapiens) (UniProt P57078); details: Compound concentration 1000.0 nM
[28] = target: Mast/stem cell growth factor receptor Kit (Homo sapiens) (UniProt P10721); details: Compound concentration 1000.0 nM
[29] = target: Ephrin type-A receptor 4 (Homo sapiens) (UniProt P54764); details: Compound concentration 1000.0 nM
[30] = target: Mitogen-activated protein kinase 7 (Homo sapiens) (UniProt Q13164); details: Compound concentration 1000.0 nM
[31] = target: Tyrosine-protein kinase CSK (Homo sapiens) (UniProt P41240); details: Compound concentration 1000.0 nM
[32] = target: RAC-beta serine/threonine-protein kinase (Homo sapiens) (UniProt P31751); details: Compound concentration 1000.0 nM
[33] = target: Tyrosine-protein kinase receptor UFO (Homo sapiens) (UniProt P30530); details: Compound concentration 1000.0 nM
[34] = target: Serine/threonine-protein kinase D3 (Homo sapiens) (UniProt O94806); details: Compound concentration 1000.0 nM
[35] = tested on: Tyrosine-protein kinase ABL1 (Homo sapiens), P00519 [F317I]; details: Compound concentration 1000.0 nM
[36] = target: Receptor-interacting serine/threonine-protein kinase 1 (Homo sapiens) (UniProt Q13546); details: Compound concentration 1000.0 nM
[37] = tested on: Tyrosine-protein kinase ABL1 (Homo sapiens), P00519 [Q252H]; details: Compound concentration 1000.0 nM
[38] = target: Mitogen-activated protein kinase 14 (Homo sapiens) (UniProt Q16539); details: Compound concentration 1000.0 nM
Chain of Mitogen-activated protein kinase 14 (Homo sapiens) (Q16539 whole entry): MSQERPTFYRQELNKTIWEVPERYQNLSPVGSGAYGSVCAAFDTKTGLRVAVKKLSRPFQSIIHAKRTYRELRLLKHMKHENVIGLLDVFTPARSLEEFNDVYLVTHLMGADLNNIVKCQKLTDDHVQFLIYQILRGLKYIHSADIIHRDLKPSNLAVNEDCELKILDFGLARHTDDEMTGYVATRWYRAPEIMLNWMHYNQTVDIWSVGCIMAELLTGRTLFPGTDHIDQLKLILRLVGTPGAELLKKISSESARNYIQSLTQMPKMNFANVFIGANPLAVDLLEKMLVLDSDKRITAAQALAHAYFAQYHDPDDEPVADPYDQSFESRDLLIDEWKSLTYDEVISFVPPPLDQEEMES

[39] = tested on: Tyrosine-protein kinase ABL1 (Homo sapiens), P00519 [F317L]; details: Compound concentration 1000.0 nM; remark: listed apart in the source
[40] = target: Dual specificity mitogen-activated protein kinase kinase 7 (Homo sapiens) (UniProt O14733); details: Compound concentration 1000.0 nM
Chain of Dual specificity mitogen-activated protein kinase kinase 7 (Homo sapiens) (O14733 whole entry): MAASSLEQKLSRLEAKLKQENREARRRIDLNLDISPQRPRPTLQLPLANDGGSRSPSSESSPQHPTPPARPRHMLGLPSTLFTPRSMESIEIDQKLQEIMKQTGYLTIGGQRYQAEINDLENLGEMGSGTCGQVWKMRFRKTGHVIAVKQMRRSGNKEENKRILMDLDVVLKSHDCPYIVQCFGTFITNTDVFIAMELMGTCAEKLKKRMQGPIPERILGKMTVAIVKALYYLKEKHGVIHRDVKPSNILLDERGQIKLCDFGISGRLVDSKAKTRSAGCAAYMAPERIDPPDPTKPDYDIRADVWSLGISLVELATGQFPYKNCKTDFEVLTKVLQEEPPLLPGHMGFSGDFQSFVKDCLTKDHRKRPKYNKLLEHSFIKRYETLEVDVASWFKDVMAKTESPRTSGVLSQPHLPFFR

[41] = target: G protein-coupled receptor kinase 3 (Homo sapiens) (UniProt P35626); details: Compound concentration 1000.0 nM
[42] = target: Protein-tyrosine kinase 6 (Homo sapiens) (UniProt Q13882); details: Compound concentration 1000.0 nM
[43] = target: Vascular endothelial growth factor receptor 2 (Homo sapiens) (UniProt P35968); details: Compound concentration 1000.0 nM
Chain of Vascular endothelial growth factor receptor 2 (Homo sapiens) (P35968 whole entry): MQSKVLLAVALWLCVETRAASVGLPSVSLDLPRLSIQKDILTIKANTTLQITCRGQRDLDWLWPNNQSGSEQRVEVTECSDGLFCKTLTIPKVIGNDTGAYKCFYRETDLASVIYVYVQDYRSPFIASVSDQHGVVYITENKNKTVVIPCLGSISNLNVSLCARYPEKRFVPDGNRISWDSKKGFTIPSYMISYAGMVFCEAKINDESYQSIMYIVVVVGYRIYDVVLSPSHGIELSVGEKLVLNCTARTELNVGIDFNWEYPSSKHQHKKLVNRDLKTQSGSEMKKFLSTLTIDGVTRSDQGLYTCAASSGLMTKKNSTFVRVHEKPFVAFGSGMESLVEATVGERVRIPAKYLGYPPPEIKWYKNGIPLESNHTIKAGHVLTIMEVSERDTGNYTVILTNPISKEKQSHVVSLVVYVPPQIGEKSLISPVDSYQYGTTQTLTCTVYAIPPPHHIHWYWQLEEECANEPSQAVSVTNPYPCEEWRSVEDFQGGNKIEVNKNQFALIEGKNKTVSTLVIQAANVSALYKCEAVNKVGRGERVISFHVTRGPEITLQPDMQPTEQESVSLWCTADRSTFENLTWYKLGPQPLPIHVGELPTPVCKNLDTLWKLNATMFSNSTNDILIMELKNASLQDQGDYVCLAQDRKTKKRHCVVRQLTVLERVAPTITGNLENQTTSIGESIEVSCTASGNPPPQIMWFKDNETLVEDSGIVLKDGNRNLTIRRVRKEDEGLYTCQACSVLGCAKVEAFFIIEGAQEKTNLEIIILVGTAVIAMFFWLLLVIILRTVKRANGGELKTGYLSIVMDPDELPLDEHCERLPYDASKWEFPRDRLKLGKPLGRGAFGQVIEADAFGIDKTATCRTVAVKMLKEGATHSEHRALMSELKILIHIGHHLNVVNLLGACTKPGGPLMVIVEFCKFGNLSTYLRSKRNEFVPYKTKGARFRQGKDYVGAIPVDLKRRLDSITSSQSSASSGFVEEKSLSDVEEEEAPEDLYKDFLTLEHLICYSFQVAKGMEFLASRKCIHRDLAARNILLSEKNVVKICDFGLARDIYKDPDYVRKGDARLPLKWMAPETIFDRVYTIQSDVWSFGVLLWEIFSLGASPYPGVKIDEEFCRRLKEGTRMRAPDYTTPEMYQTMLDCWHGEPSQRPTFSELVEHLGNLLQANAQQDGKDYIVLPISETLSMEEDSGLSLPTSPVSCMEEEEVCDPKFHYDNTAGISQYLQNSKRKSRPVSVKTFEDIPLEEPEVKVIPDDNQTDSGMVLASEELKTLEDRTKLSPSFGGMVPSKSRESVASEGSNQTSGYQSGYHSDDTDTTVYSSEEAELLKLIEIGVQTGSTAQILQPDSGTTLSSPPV

[44] = target: Non-receptor tyrosine-protein kinase TYK2 (Homo sapiens) (UniProt P29597); details: Compound concentration 1000.0 nM
[45] = target: Serine/threonine-protein kinase 33 (Homo sapiens) (UniProt Q9BYT3); details: Compound concentration 1000.0 nM

Chain of Dual specificity mitogen-activated protein kinase kinase 1 (Homo sapiens) (Q02750 whole entry): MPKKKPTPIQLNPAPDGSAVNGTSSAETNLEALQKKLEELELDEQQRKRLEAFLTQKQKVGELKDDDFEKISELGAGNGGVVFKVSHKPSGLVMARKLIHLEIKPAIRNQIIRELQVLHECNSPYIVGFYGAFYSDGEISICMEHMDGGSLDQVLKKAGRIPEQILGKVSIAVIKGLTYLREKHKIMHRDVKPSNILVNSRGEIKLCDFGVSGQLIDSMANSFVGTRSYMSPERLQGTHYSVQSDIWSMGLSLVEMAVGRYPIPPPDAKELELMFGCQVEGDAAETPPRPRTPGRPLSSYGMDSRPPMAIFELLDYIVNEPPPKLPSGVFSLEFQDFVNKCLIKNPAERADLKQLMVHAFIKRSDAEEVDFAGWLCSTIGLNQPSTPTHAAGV

N#CC1(c2ccccn2)CCN(Cc2cc(C(=O)O)c(=O)n3ccccc23)CC1 [MSD-M1PAM]
inactive: residual activity [1] 57% | residual activity [2] 95% | residual activity [3] 100% | residual activity [4] 100% | residual activity [5] 91% | residual activity [6] 99% | residual activity [7] 99% | residual activity [8] 70% | residual activity [9] 92% | residual activity [10] 89% | residual activity [11] 100% | residual activity [12] 100% | residual activity [13] 83% | residual activity [14] 100% | residual activity [15] 58% | residual activity [16] 95% | inhibition [17] -4.55% | residual activity [18] 97% | residual activity [19] 100% | residual activity [20] 71% | residual activity [21] 84% | residual activity [22] 89% | residual activity [23] 87% | residual activity [24] 96% | residual activity [25] 90% | inhibition [26] 18.5% | residual activity [27] 80% | residual activity [28] 100% | residual activity [29] 79% | residual activity [30] 94% | residual activity [31] 100% | residual activity [32] 73% | residual activity [33] 91% | residual activity [34] 98% | residual activity [35] 65% | residual activity [36] 100% | residual activity [37] 72% | residual activity [38] 100% | residual activity [39] 84% | residual activity [40] 95% | residual activity [41] 95% | residual activity [42] 100% | residual activity [43] 79% | residual activity [44] 99% | residual activity [45] 56%

N#CC1(c2ccccn2)CCN(Cc2cc(C(=O)N3CCCC3)c(=O)n3ccccc23)CC1
inactive: residual activity [1] 92% | residual activity [2] 100% | residual activity [3] 79% | residual activity [4] 96% | residual activity [5] 61% | residual activity [6] 100% | residual activity [7] 58% | residual activity [8] 100% | residual activity [9] 89% | residual activity [10] 100% | residual activity [11] 80% | residual activity [12] 100% | residual activity [13] 100% | residual activity [14] 100% | residual activity [15] 94% | residual activity [16] 85% | inhibition [17] 14.6% | residual activity [18] 100% | residual activity [19] 76% | residual activity [20] 100% | residual activity [21] 96% | residual activity [22] 78% | residual activity [23] 92% | residual activity [24] 81% | residual activity [25] 100% | inhibition [26] 35% | residual activity [27] 100% | residual activity [28] 95% | residual activity [29] 89% | residual activity [30] 63% | residual activity [31] 91% | residual activity [32] 84% | residual activity [33] 78% | residual activity [34] 100% | residual activity [35] 87% | residual activity [36] 100% | residual activity [37] 90% | residual activity [38] 86% | residual activity [39] 100% | residual activity [40] 100% | residual activity [41] 77% | residual activity [42] 82% | residual activity [43] 92% | residual activity [44] 91% | residual activity [45] 62%
